# In ChEMBL document CHEMBL1144237, “Novel HCV NS5B polymerase inhibitors derived from 4-(1',1'-dioxo-1',4'-dihydro-1'lambda(6)-benzo[1',2',4']thiadiazin-3'-yl)-5-hydroxy-2H-pyridazin-3-ones. Part 5: Exploration of pyridazinones containing 6-amino-substituents” (Bioorg Med Chem Lett, 2008):
# Assay: Apparent permeability across human Caco-2 cell membrane
# Format: ADME, cell-based
row,SMILES,Papp
1,CC(C)CCn1nc(-c2cccs2)c(O)c(C2=Nc3ccc(NS(C)(=O)=O)cc3S(=O)(=O)N2)c1=O,0.02 ×10⁻⁶ cm/s
2,CC(C)(C)CCn1nc(N2CCCC2)c(O)c(C2=NS(=O)(=O)c3cc(NS(C)(=O)=O)ccc3N2)c1=O,0.37 ×10⁻⁶ cm/s
3,CC(C)CCn1nc(N(C)C(C)C)c(O)c(C2=NS(=O)(=O)c3cc(NS(C)(=O)=O)ccc3N2)c1=O,0.77 ×10⁻⁶ cm/s
4,CC(C)CCn1nc(N2CCCC2)c(O)c(C2=Nc3ccc(NS(C)(=O)=O)cc3S(=O)(=O)N2)c1=O,0.32 ×10⁻⁶ cm/s
5,CCCN(C)c1nn(CCC(C)C)c(=O)c(C2=NS(=O)(=O)c3cc(NS(C)(=O)=O)ccc3N2)c1O,0.12 ×10⁻⁶ cm/s

# Results, then the molecule that gave them:
row,Papp,SMILES
1,0.22 ×10⁻⁶ cm/s,CS(=O)(=O)Nc1ccc2c(c1)S(=O)(=O)N=C(c1c(O)c(N3CCCC3)nn(CCC3CC3)c1=O)N2
2,0.021 ×10⁻⁶ cm/s,CC(C)CCn1nc(N2CCOCC2)c(O)c(C2=NS(=O)(=O)c3cc(NS(C)(=O)=O)ccc3N2)c1=O
3,0.3 ×10⁻⁶ cm/s,CCN(CC)c1nn(CCC(C)C)c(=O)c(C2=NS(=O)(=O)c3cc(NS(C)(=O)=O)ccc3N2)c1O
